Assay [1] concerns the target T1, IFITM3 (Homo sapiens, UniProt Q01628). It is filed as cell-based. The arrangement: treated with 10 ng/ml type 1 interferon (IFNβ) overnight to induce IFITM3 expression; endogenous in cells; host or cells: THP-1 (human monocytic cell line), IFNβ-treated.
Another assay deals with Human stem cells (HSC). It is filed as cell-based.
Another assay has as its target CypA (Homo sapiens, UniProt P62937). The experiment in a line: biochemical. In kind it is binding. As to conditions: for Kd / Max Response: SPR, Biacore, 25° C. How it is done:
CypA binding was carried out using surface plasmon resonance as described (Warne J Biol Chem. 2016 Feb. 26; 291 (9): 4356-73).
Surface Plasmon Resonance (SPR) using Biacore at 25° C. was used to study the binding interactions between CypA and various inhibitors. The SPR binding experiments used a duel flow cell with a blank reference. The sensor chip surface was initially activated with a mixture of N-hydroxysuccinimide (NHS,) and N-(3-dimethyl-aminopropyl)-N′-ethyl-carbodiimide hydrochloride (EDC) for 420 s with a flow rate of 10 μl/min on blank flow cell 1 in addition to flow cell 2.
CypA protein was diluted to a concentration of 50 μg/mL by the addition of 10 mM sodium acetate pH 5 solution before immobilisation and covalent attachment to the carboxy-methylated dextran matrix of the Biacore CM5 sensor chip. CypA was run against the surface for 420 s and then any unreacted surface was quenched by 420 s of ethanolamine.
Immobilisations were carried out in the presence of JW47 (Warne J Biol Chem. 2016 Feb. 26; 291 (9): 4356-73).
No regeneration stage was required if the dissociation time was sufficient.
Solvent correction was carried out in each experiment using 8 different DMSO dilutions as reference: 2.8%, 2.6%, 2.4%, 2.2%, 2%, 1.8%, 1.6% & 1.5%.
A 50/50 mixture of buffer and DMSO is required to include a wash cycle in the experiment.
50 μl of CypA (0.1 mg/ml)+40 μL of 10 mM sodium acetate pH5+10 μl of 600 μM of JW47 DMSO solution. This mixture was allowed to stand at room temperature for 10 mins prior to set-up in the injection rack.
On the technique in general: SPR reads the build-up and loss of mass on a sensor chip optically.

Assay [2] addresses T1, IFITM3. In kind it is cell-based. Also on record: treated with 10 ng/ml type 1 interferon (IFNβ) overnight to induce IFITM3 expression; endogenous in cells; host or cells: THP-1 (human monocytic cell line), IFNβ-treated. This is another data set of the same source.
The target in assay [3] is T1, IFITM3. Briefly: cell-based or functional assay.
The target of a further assay is cyclophilin A (CypA) (UniProt P62937). Briefly: SPR (Biacore, 25 C), CypA amine-coupled to CM5 chip, compound as analyte.
Chain of cyclophilin A (CypA) (P62937 whole entry): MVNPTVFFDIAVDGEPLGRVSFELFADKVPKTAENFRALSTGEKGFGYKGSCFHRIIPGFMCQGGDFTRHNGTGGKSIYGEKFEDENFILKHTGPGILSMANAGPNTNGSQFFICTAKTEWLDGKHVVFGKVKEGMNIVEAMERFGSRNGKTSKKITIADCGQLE

Read-outs that look alike come from different tables or passages of the source.

What is called koff is the first-order rate constant of dissociation. Higher therefore signals a short-lived complex. For orientation: kon means the second-order rate constant of association. In general, Kd refers to the constant that tells how readily two partners part at equilibrium.

T1 sequence (Q01628 whole entry): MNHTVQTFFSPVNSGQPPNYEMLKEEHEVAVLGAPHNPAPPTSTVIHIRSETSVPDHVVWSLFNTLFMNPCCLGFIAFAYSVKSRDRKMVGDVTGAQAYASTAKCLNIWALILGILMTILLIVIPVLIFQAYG
Chain of CypA (P62937 whole entry): as the sequence (P62937 whole entry) above

With `C/C=C/C[C@@H](C)[C@@H](O)[C@H]1C(=O)N[C@@H](CC)C(=O)N(C)CC(=O)N(C)[C@@H](CC(C)C)C(=O)N[C@@H](C(C)C)C(=O)N(C)[C@@H](CC(C)C)C(=O)N[C@@H](C)C(=O)N[C@H](C)C(=O)N(C)[C@@H](CC(C)C)C(=O)N(C)[C@@H](CC(C)C)C(=O)N(C)[C@H](C(C)C)C(=O)N1C` [CsH, Cyclosporine H, reference compound], at IFITM3 [1], the “rescue of infection from the antiviral effect of IFN” value is given as “rescue infection from the antiviral effect of IFN”. Further, the “transduction enhancement (% infected human stem cells), first donor” value in the assay with Human stem cells (HSC) is “achieves good enhancement but at higher concentrations”.
On to `CC[C@@H]1NC(=O)[C@H]([C@H](O)[C@H](C)CC=Cc2c(OC)cc(C(=O)OCCn3ccnc3)cc2OC)N(C)C(=O)[C@H](C(C)C)N(C)C(=O)[C@H](CC(C)C)N(C)C(=O)[C@H](CC(C)C)N(C)C(=O)[C@@H](C)NC(=O)[C@H](C)NC(=O)[C@H](CC(C)C)N(C)C(=O)[C@H](C(C)C)NC(=O)[C@H](CC(C)C)N(C)C(=O)CN(C)C1=O` [BG186, 2-(1H-imidazol-1-yl)ethyl 4-((4R,5R)-5-((2S,5S,11S,14S,17S,20S,23R,26S,29S,32S)-5-ethyl-11,17,26,29-tetraisobutyl-14,32-diisopropyl-1,7,10,16,20,23,25,28,31-nonamethyl-3,6,9,12,15,18,21,24,27,30,33-undecaoxo-1,4,7,10,13,16,19,22,25,28,31-undecaazacyclotritriacontan-2-yl)-5-hydroxy-4-methylpent-1-en-1-yl)-3,5-dimethoxybenzoate], for which, on CypA, the koff is 0.422 s⁻¹, the kon stood at 14600 M⁻¹ s⁻¹ and the “Max Response” value came to 7.6 RU. The compound also had a Kd on CypA (Kd (Affinity)) of 4.76 µM. On CypA (Kd (Kinetics)), the Kd came out at 28.9 µM.
For the compound `CC[C@@H]1NC(=O)[C@H]([C@H](O)[C@H](C)C/C=C/CCCn2ccnc2)N(C)C(=O)C(C(C)C)N(C)C(=O)[C@H](CC(C)C)N(C)C(=O)[C@H](CC(C)C)N(C)C(=O)[C@@H](C)NC(=O)[C@H](C)NC(=O)[C@H](CC(C)C)N(C)C(=O)[C@H](C(C)C)NC(=O)[C@H](CC(C)C)N(C)C(=O)CN(C)C1=O` (stereo partly shown) [JW-115, reference compound], at IFITM3 [2], the “fold rescue compared to inhibited baseline” value is on record as 14.2 fold.
In the case of `CC[C@@H]1NC(=O)[C@H]([C@H](O)[C@H](C)CC=Cc2ccc(C(=O)OCCn3ccnc3)cc2OC)N(C)C(=O)[C@H](C(C)C)N(C)C(=O)[C@H](CC(C)C)N(C)C(=O)[C@H](CC(C)C)N(C)C(=O)[C@@H](C)NC(=O)[C@H](C)NC(=O)[C@H](CC(C)C)N(C)C(=O)[C@H](C(C)C)NC(=O)[C@H](CC(C)C)N(C)C(=O)CN(C)C1=O` [BG181], on CypA, the koff is 0.228 s⁻¹, the kon was 6360 M⁻¹ s⁻¹ and the “Max Response” value was 9.8 RU. The Kd at CypA (read-out: Kd (Affinity)) worked out at 2.66 µM. At CypA (read-out: Kd (Kinetics)), the Kd was determined as 35.9 µM.
For the compound `CC[C@@H]1NC(=O)[C@H]([C@H](O)[C@H](C)CC=Cc2ccc(C(=O)OCCn3ccnc3)cc2OC(C)C)N(C)C(=O)[C@H](C(C)C)N(C)C(=O)[C@H](CC(C)C)N(C)C(=O)[C@H](CC(C)C)N(C)C(=O)[C@@H](C)NC(=O)[C@H](C)NC(=O)[C@H](CC(C)C)N(C)C(=O)[C@H](C(C)C)NC(=O)[C@H](CC(C)C)N(C)C(=O)CN(C)C1=O` [BG185], on CypA, the off-rate constant (koff) was 0.584 s⁻¹, the on-rate (kon) is 2250 M⁻¹ s⁻¹ and the “Max Response” value is on record as 14.5 RU. The equilibrium dissociation constant (Kd) at CypA (read-out: Kd (Affinity)) was 2.92 µM. Besides, the Kd at CypA (read-out: Kd (Kinetics)) was found to be 259 µM.
In the assay with IFITM3 [3], Cyclosporine H (CsH) (peptide) returned a fold rescue of HIV-GFP infection compared to IFN-inhibited baseline, THP-1 cells, compound at 5 µM of 24.6 fold.
On to `CC[C@@H]1NC(=O)[C@H]([C@H](O)[C@H](C)CC=Cc2ccc(C(=O)OCCn3ccnc3)cc2C)N(C)C(=O)[C@H](C(C)C)N(C)C(=O)[C@H](CC(C)C)N(C)C(=O)[C@H](CC(C)C)N(C)C(=O)[C@@H](C)NC(=O)[C@H](C)NC(=O)[C@H](CC(C)C)N(C)C(=O)[C@H](C(C)C)NC(=O)[C@H](CC(C)C)N(C)C(=O)CN(C)C1=O` [BG150], for which, at CypA, the koff is 0.0425 s⁻¹, the kon stood at 11100 M⁻¹ s⁻¹ and the “Max Response” value is on record as 18.7 RU. Besides, on CypA (read-out: Kd (Affinity)), the Kd is 1.31 µM. In addition, at CypA (read-out: Kd (Kinetics)), the Kd came out at 3.84 µM.
With `CC[C@@H]1NC(=O)[C@H]([C@H](O)[C@H](C)CC=Cc2ccc(C(=O)OCCn3ccnc3)cc2C(F)(F)F)N(C)C(=O)[C@H](C(C)C)N(C)C(=O)[C@H](CC(C)C)N(C)C(=O)[C@H](CC(C)C)N(C)C(=O)[C@@H](C)NC(=O)[C@H](C)NC(=O)[C@H](CC(C)C)N(C)C(=O)[C@H](C(C)C)NC(=O)[C@H](CC(C)C)N(C)C(=O)CN(C)C1=O` [BG190], at CypA, the koff is 0.0138 s⁻¹, the kon is 4800 M⁻¹ s⁻¹ and the “Max Response” value is 13.2 RU. In addition, the Kd on CypA (read-out: Kd (Affinity)) worked out at 6.07 µM.
Turning to `CCc1cc(C(=O)OCCn2ccnc2)ccc1C=CC[C@@H](C)[C@@H](O)[C@H]1C(=O)N[C@@H](CC)C(=O)N(C)CC(=O)N(C)[C@@H](CC(C)C)C(=O)N[C@@H](C(C)C)C(=O)N(C)[C@@H](CC(C)C)C(=O)N[C@@H](C)C(=O)N[C@H](C)C(=O)N(C)[C@@H](CC(C)C)C(=O)N(C)[C@@H](CC(C)C)C(=O)N(C)[C@@H](C(C)C)C(=O)N1C` [BG149], on CypA, the “Max Response” value turned out to be 4.8 RU.
As for Cyclosporine A (CsA) (peptide), in the assay with IFITM3 [3], the fold rescue of HIV-GFP infection compared to IFN-inhibited baseline, THP-1 cells, compound at 5 µM came to 9.9 fold. Further, in the assay with cyclophilin A (CypA), the Max Response came out at 40 RU.

The values above are taken from patent US20250388625A1, “CYCLOSPORINE ANALOGUES” (priority 2022, published 2025).
